Results: ChEMBL document CHEMBL4052588, “Design of a Biased Potent Small Molecule Inhibitor of the Bromodomain and PHD Finger-Containing (BRPF) Proteins Suitable for Cellular and in Vivo Studies” (J Med Chem, 2017)

Assays:
[1] = molecular target: T1, Peregrin (Homo sapiens, UniProt P55201); assay: Inhibition of human BRPF1 expressed in Escherichia coli BL21 after 1 hr by BROMOscan assay
T1 sequence (P55201 whole entry): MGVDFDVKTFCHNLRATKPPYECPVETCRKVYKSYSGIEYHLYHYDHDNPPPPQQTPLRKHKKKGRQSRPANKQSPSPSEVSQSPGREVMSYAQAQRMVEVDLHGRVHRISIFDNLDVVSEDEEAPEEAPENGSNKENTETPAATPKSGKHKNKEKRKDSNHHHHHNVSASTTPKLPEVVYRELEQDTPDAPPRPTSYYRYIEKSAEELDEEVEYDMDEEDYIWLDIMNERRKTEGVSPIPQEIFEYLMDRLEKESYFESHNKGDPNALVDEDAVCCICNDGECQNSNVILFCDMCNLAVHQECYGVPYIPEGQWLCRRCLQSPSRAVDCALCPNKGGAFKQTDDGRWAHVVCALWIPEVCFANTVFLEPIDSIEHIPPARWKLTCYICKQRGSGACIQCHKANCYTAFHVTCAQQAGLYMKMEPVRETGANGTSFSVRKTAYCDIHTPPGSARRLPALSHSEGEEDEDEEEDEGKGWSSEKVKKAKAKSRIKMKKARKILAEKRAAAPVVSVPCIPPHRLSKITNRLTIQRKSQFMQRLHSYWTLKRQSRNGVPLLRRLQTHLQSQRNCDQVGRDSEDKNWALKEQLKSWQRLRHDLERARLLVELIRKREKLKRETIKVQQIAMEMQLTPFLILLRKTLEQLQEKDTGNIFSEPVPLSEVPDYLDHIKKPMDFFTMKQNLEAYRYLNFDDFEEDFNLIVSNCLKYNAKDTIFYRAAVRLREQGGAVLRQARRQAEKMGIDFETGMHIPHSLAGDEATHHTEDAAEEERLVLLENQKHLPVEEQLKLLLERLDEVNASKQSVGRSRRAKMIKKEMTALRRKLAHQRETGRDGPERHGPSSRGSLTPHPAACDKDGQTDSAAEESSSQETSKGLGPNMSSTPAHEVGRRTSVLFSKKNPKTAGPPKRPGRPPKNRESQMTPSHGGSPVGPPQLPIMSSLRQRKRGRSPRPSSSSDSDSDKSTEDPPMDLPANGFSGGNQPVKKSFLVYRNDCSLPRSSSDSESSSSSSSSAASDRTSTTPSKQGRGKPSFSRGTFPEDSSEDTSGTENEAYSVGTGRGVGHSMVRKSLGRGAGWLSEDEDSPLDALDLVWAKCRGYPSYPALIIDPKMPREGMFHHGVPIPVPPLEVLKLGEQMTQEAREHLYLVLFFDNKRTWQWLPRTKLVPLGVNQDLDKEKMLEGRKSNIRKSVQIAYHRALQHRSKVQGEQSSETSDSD

[2] = molecular target: T2, Bromodomain-containing protein 1 (Homo sapiens) (UniProt O95696)
T2 sequence (whole entry): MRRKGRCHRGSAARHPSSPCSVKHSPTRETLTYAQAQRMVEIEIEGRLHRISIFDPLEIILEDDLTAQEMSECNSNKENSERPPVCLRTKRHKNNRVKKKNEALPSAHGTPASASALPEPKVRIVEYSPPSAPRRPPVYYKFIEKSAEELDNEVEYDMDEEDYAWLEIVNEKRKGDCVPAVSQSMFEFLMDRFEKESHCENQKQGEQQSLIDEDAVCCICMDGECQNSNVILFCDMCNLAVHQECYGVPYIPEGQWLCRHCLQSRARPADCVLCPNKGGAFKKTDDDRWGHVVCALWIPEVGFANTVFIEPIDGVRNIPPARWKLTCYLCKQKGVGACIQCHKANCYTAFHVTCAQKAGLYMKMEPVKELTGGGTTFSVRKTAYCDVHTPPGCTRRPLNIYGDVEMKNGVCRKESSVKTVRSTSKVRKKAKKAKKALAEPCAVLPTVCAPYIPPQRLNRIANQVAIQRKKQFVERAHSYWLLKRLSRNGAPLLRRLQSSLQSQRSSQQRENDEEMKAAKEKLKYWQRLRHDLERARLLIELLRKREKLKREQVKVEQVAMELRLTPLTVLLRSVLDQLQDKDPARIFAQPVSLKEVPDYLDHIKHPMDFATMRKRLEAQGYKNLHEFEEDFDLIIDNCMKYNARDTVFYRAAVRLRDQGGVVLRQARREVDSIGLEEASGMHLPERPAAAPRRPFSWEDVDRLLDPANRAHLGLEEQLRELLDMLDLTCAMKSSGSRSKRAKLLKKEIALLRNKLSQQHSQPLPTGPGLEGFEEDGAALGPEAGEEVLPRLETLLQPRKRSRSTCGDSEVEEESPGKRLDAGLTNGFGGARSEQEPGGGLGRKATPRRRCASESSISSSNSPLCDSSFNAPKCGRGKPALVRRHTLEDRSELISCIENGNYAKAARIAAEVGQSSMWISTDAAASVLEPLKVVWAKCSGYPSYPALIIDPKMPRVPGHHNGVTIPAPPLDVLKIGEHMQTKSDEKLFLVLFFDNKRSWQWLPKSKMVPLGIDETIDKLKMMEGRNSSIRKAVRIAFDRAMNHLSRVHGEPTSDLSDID

[3] = molecular target: T3, Peregrin (Homo sapiens) (UniProt P55201)
T3 sequence (whole entry): T1 sequence (P55201 whole entry)

[4] = molecular target: T4, Bromodomain and PHD finger-containing protein 3 (Homo sapiens) (UniProt Q9ULD4)
T4 sequence (whole entry): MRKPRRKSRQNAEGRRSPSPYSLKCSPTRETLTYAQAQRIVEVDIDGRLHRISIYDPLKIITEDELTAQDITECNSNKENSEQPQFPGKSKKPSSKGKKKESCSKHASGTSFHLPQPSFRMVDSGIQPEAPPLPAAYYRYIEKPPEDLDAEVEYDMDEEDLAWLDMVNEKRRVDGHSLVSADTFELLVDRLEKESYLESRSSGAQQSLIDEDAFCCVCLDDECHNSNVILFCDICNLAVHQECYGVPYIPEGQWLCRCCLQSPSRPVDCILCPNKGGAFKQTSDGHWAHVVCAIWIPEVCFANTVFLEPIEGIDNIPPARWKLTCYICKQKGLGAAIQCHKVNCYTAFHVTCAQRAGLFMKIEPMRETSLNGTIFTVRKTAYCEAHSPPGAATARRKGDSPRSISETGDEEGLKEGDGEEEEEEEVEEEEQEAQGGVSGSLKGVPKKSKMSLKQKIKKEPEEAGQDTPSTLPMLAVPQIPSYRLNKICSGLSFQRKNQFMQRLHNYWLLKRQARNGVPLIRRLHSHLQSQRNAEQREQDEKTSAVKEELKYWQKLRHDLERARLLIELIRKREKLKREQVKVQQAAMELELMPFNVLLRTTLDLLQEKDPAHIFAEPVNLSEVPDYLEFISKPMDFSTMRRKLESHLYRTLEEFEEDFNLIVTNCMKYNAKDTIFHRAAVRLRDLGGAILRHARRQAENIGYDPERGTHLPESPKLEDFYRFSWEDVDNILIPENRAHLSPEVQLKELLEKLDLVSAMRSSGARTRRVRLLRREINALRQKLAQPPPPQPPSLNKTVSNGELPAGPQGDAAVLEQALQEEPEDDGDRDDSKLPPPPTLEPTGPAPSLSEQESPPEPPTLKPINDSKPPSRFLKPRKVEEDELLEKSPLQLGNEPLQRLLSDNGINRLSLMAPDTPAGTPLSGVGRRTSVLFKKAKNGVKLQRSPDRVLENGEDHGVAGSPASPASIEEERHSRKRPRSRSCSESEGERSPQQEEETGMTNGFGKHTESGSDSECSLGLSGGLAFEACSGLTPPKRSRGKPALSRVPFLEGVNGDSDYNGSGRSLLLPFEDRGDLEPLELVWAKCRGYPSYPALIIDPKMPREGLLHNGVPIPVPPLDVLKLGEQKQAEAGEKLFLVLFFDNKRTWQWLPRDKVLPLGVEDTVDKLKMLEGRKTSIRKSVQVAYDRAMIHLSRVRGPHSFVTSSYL

[5] = molecular target: T5, Bromodomain-containing protein 9 (Homo sapiens) (UniProt Q9H8M2)
T5 sequence (whole entry): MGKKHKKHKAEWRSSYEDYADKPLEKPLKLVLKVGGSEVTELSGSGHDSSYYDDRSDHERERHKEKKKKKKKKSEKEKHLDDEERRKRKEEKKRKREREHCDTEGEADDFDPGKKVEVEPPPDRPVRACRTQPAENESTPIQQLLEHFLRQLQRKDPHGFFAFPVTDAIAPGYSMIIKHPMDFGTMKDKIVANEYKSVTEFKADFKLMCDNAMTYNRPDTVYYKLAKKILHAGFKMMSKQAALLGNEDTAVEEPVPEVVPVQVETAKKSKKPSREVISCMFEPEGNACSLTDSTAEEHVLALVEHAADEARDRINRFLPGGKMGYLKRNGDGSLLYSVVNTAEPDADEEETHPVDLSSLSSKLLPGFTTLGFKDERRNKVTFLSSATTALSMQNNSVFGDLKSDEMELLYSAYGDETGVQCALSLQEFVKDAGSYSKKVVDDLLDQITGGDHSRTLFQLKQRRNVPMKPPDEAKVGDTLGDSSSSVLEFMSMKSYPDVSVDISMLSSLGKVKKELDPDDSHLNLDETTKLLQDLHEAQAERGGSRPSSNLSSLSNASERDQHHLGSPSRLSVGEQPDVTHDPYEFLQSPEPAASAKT

[6] = molecular target: T6, Bromodomain and PHD finger-containing protein 3 (Homo sapiens, UniProt Q9ULD4); assay: Inhibition of human BRPF3 expressed in Escherichia coli BL21 after 1 hr by BROMOscan assay
T6 sequence (Q9ULD4 whole entry): T4 sequence (whole entry)

[7] = molecular target: T7, Bromodomain-containing protein 4 (Homo sapiens, UniProt O60885)
[8] = molecular target: T7, Bromodomain-containing protein 4; assay: Inhibition of human BRD4-BD1 expressed in Escherichia coli BL21 after 1 hr by BROMOscan assay
[9] = molecular target: T8, Bromodomain-containing protein 1 (Homo sapiens, UniProt O95696); assay: Inhibition of human BRPF2-BRD1 expressed in Escherichia coli BL21 after 1 hr by BROMOscan assay
T8 sequence (O95696 whole entry): T2 sequence (whole entry)

[10] = molecular target: T9, Bromodomain-containing protein 9 (Homo sapiens, UniProt Q9H8M2); assay: Inhibition of human BRD9 expressed in Escherichia coli BL21 after 1 hr by BROMOscan assay
T9 sequence (Q9H8M2 whole entry): T5 sequence (whole entry)

CCc1cc2cc(NS(=O)(=O)c3ccc(C#N)cc3)ccc2n(C)c1=O gave an IC50 [1] of 0.18 µM and a ΔTm [2] of 3.3 °C.

Cn1c(=O)ccc2cc(N)ccc21 showed an IC50 [1] of 2.1 µM.

CCn1c(=O)c(C)cc2cc(NS(=O)(=O)c3ccc(C#N)cc3)ccc21 showed an IC50 [1] of 0.015 µM, a ΔTm [2] of 1.5 °C and a ΔTm [3] of 5.2 °C. For the same molecule, the ΔTm [4] was 1.2 °C.

In the case of Cn1c(=O)ccc2cc(NS(=O)(=O)c3ccc(C#N)cc3)ccc21, the ΔTm [5] is reported as 2.3 °C, the ΔTm [2] is reported as 2.4 °C and the IC50 [6] is reported as 1 µM. For the same molecule, the ΔTm [7] was 1.4 °C and the IC50 [8] was 2.8 µM.

Cn1c(=O)ccc2cc(NS(=O)(=O)c3cccc(C#N)c3)ccc21 was tested, and the ΔTm [5] was 2.5 °C, the ΔTm [2] was 2.1 °C and the ΔTm [7] was 1.1 °C.

For Cn1c(=O)ccc2cc(NS(=O)(=O)c3ccc(Cl)c(Cl)c3)ccc21, the IC50 [1] was 0.044 µM, the ΔTm [2] was 2.5 °C and the IC50 [9] was 0.23 µM. For the same molecule, the ΔTm [3] was 4.9 °C.

In the case of Cc1cc2cc(N)ccc2n(C)c1=O, the IC50 [1] is reported as 0.19 µM.

In the case of Cn1c(=O)ccc2cc(NS(=O)(=O)c3ccc(C#N)cc3F)ccc21, the ΔTm [2] is reported as 1.3 °C, the ΔTm [3] is reported as 3.6 °C and the ΔTm [4] is reported as 1.2 °C.

In the case of Cn1c(=O)ccc2cc(NS(=O)(=O)c3ccccc3)ccc21, the IC50 [10] is reported as 0.22 µM, the ΔTm [5] is reported as 3.5 °C and the ΔTm [2] is reported as 1.9 °C. The ΔTm [7] was 1.1 °C, the ΔTm [4] was 1.5 °C and the IC50 [8] was 1.7 µM.

With Cn1c(=O)ccc2cc(NS(=O)(=O)c3ccccc3C#N)ccc21 the ΔTm [5] was 2.9 °C, the ΔTm [2] was 0.9 °C and the ΔTm [7] was 1.3 °C.

For COc1ccccc1S(=O)(=O)Nc1ccc2c(c1)cc(C)c(=O)n2C, the IC50 [8] was 0.6 µM.
